From patent US9908850B2, “Salt forms of [R—(R*,R*)]-2-(4-fluorophenyl)-β,δ-dihydroxy-5-(1-methylethyl)3-phenyl-4-[(phenylamino)carbonyl]-1H-pyrrole-1-hepatonic acid” (Pfizer Inc., priority 2004, dated 2018)

Test: hygroscopicity of the salt forms
Format: physicochemical
Conditions: solid salt; considered to be non-hygroscopic

Q: For CC(C)c1c(C(=O)Nc2ccccc2)c(-c2ccccc2)c(-c2ccc(F)cc2)n1CC[C@@H](O)C[C@@H](O)CC(=O)O.c1ccc(CCNCc2ccccc2)cc1 (relative stereo) [benethamine, [R—(R*,R*)]-2-(4-Fluorophenyl)-β,δ-dihydroxy-5-(1-methylethyl)-3-phenyl-4-[(phenylamino)carbonyl]-1H-pyrrole-1-heptanoic acid, N-benzyl-2-phenylethylamine], which hygroscopicity is on record?
A: Its hygroscopicity is “non-hygroscopic”.

Q: With CC(C)c1c(C(=O)Nc2ccccc2)c(-c2ccccc2)c(-c2ccc(F)cc2)n1CC[C@@H](O)C[C@@H](O)CC(=O)O.c1ccc(CNCCNCc2ccccc2)cc1 (relative stereo) [benzathine, [R—(R*,R*)]-2-(4-Fluorophenyl)-β,δ-dihydroxy-5-(1-methylethyl)-3-phenyl-4-[(phenylamino)carbonyl]-1H-pyrrole-1-heptanoic acid,N,N^1-bis(phenylmethyl)-1,2-ethanediamine] as the compound, how does the hygroscopicity read?
A: Its hygroscopicity is “non-hygroscopic”.

Q: Which hygroscopicity does the source give for “[R—(R*,R*)]-2-(4-Fluorophenyl)-β,δ-dihydroxy-5-(1-methylethyl)-3-phenyl-4-[(phenylamino)carbonyl]-1H-pyrrole-1-heptanoic acid, tertiary-butylamine [erbumine]” here?
A: The hygroscopicity was “non-hygroscopic”.

Q: Which hygroscopicity does the source give for “[R—(R*,R*)]-2-(4-Fluorophenyl)-β,δ-dihydroxy-5-(1-methylethyl)-3-phenyl-4-[(phenylamino)carbonyl]-1H-pyrrole-1-heptanoic acid, tetrahydro-2H-1,4-oxazine [morpholine]” here?
A: Its hygroscopicity is “non-hygroscopic”.

Q: For “[R—(R*,R*)]-2-(4-Fluorophenyl)-β,δ-dihydroxy-5-(1-methylethyl)-3-phenyl-4-[(phenylamino)carbonyl]-1H-pyrrole-1-heptanoic acid,N-(phenylmethyl)benzenemethanamine [dibenzylamine]”, which hygroscopicity is on record?
A: Its hygroscopicity is “non-hygroscopic”.

Q: Which hygroscopicity does the source give for “[R—(R*,R*)]-2-(4-Fluorophenyl)-β,δ-dihydroxy-5-(1-methylethyl)-3-phenyl-4-[(phenylamino)carbonyl]-1H-pyrrole-1-heptanoic acid,N-ethylethanamine [diethylamine]” here?
A: The hygroscopicity was “non-hygroscopic”.
